In ChEMBL document CHEMBL2375306, “Antimicrobial peptides containing unnatural amino acid exhibit potent bactericidal activity against ESKAPE pathogens” (Bioorg Med Chem, 2013):
Converted amounts (≈) assume the structure as drawn. Square brackets hold non-standard residues; d marks the D form. Peptide text beside a SMILES is read from it. ξ: configuration not given here. Pro(3ξ,4ξ-(CH2)4) = O=C(O)[C@H]1NCC2CCCCC21; Tic = O=C(O)[C@@H]1Cc2ccccc2CN1; Dab = NCC[C@H](N)C(=O)O

Key:
[1] = test system: NHDF; assay: Cytotoxicity against NHDF at >50 ug/ml after 6 hrs by LDH assay; format: cell-based; settings: human
[2] = test system: NHDF; assay: Cytotoxicity against NHDF at >50 ug/ml after 6 hrs by MTT assay; format: cell-based; settings: human
[3] = test system: Klebsiella aerogenes; assay: Antibacterial activity against Enterobacter aerogenes after 24 hrs by broth microdilution method; format: functional
[4] = test system: Staphylococcus aureus; assay: Antibacterial activity against community-associated methicillin-resistant Staphylococcus aureus USA300 after 24 hrs by broth microdilution method; format: functional; settings: USA300, 24 h
[5] = test system: NHDF; assay: Cytotoxicity against NHDF at 50 ug/ml after 6 hrs by MTT assay; format: cell-based; settings: human
[6] = test system: Staphylococcus aureus; assay: Antibacterial activity against methicillin-sensitive Staphylococcus aureus UAMS-1 after 24 hrs by broth microdilution method; format: functional; settings: UAMS-1, 24 h
[7] = test system: Pseudomonas aeruginosa; assay: Antibacterial activity against Pseudomonas aeruginosa PAO1 after 24 hrs by broth microdilution method; format: functional; settings: PAO1, 24 h
[8] = test system: Acinetobacter baumannii; assay: Antibacterial activity against Acinetobacter baumannii WRAIR clinical isolate 13 after 24 hrs by broth microdilution method; format: functional; settings: WRAIR clinical isolate 13, 24 h
[9] = test system: Klebsiella pneumoniae; assay: Antibacterial activity against Klebsiella pneumoniae BAMS clinical isolate 07-18 after 24 hrs by broth microdilution method; format: functional; settings: BAMS clinical isolate 07-18, 24 h
[10] = test system: Enterococcus faecium; assay: Antibacterial activity against Enterococcus faecium MMC4 after 24 hrs by broth microdilution method; format: functional; settings: MMC4, 24 h
[11] = test system: NHDF; assay: Cytotoxicity against NHDF at 50 ug/ml after 6 hrs by LDH assay; format: cell-based; settings: human

SMILES	Activity [1]	Activity [2]	MBC [3] [µg/mL]	MIC [3] [µg/mL]	MIC [4] [µg/mL]	Activity [5]	MBC [6] [µg/mL]	MIC [6] [µg/mL]	MBC [7] [µg/mL]	MIC [7] [µg/mL]	MBC [8] [µg/mL]	MIC [8] [µg/mL]	MBC [9] [µg/mL]	MIC [9] [µg/mL]	MBC [10] [µg/mL]	MIC [10] [µg/mL]	Activity [11]
CC(=O)NCC(=O)N[C@@H](Cc1ccccc1)C(=O)N1Cc2ccccc2C[C@H]1C(=O)N1CC2CCCCC2[C@H]1C(=O)NCC(=O)N[C@@H](CCN)C(=O)N1Cc2ccccc2C[C@H]1C(=O)N1CC2CCCCC2[C@H]1C(=O)NCC(=O)N[C@@H](Cc1ccccc1)C(=O)N1Cc2ccccc2C[C@H]1C(=O)N1CC2CCCCC2[C@H]1C(=O)NCC(=O)N[C@@H](CCN)C(=O)N1Cc2ccccc2C[C@H]1C(=O)N[C@@H](CCN)C(=O)N[C@@H](CCN)C(=O)N[C@@H](CCN)C(=O)N[C@@H](CCN)C(N)=O (stereo partly drawn) (Ac-GF[Tic][Pro(3ξ,4ξ-(CH2)4)]G[Dab][Tic][Pro(3ξ,4ξ-(CH2)4)]GF[Tic][Pro(3ξ,4ξ-(CH2)4)]G[Dab][Tic][Dab][Dab][Dab][Dab]-NH2)	Toxic	Toxic	25 (≈ 11 µM)	25 (≈ 11 µM)	25 (≈ 11 µM)	Non-toxic	50 (≈ 22 µM)	50 (≈ 22 µM)	25 (≈ 11 µM)	12.5 (≈ 5.5 µM)	12.5 (≈ 5.5 µM)	6.25 (≈ 2.75 µM)	12.5 (≈ 5.5 µM)	12.5 (≈ 5.5 µM)	50 (≈ 22 µM)	6.25 (≈ 2.75 µM)	Non-toxic
CC(C)C[C@H](NC(=O)[C@@H](N)CCCCN)C(=O)N1Cc2ccccc2C[C@H]1C(=O)N1CC2CCCCC2[C@H]1C(=O)N[C@@H](CCCCN)C(=O)NCC(=O)N1Cc2ccccc2C[C@H]1C(=O)N1CC2CCCCC2[C@H]1C(=O)N[C@@H](Cc1ccccc1)C(=O)NCC(=O)N1Cc2ccccc2C[C@H]1C(=O)N1CC2CCCCC2[C@H]1C(=O)N[C@@H](CCCCN)C(=O)NCC(=O)N1Cc2ccccc2C[C@H]1C(=O)N1CC2CCCCC2[C@H]1C(=O)N[C@@H](Cc1ccccc1)C(=O)NCC(=O)N1Cc2ccccc2C[C@H]1C(=O)N1CC2CCCCC2[C@H]1C(=O)N[C@@H](CCCCN)C(=O)NCC(=O)N1Cc2ccccc2C[C@H]1C(=O)N1CC2CCCCC2[C@H]1C(=O)N[C@@H](CCCCN)C(=O)N[C@@H](CCCCN)C(=O)N[C@@H](CCCCN)C(=O)N[C@@H](CCCCN)C(N)=O (stereo partly drawn) (H-KL[Tic][Pro(3ξ,4ξ-(CH2)4)]KG[Tic][Pro(3ξ,4ξ-(CH2)4)]FG[Tic][Pro(3ξ,4ξ-(CH2)4)]KG[Tic][Pro(3ξ,4ξ-(CH2)4)]FG[Tic][Pro(3ξ,4ξ-(CH2)4)]KG[Tic][Pro(3ξ,4ξ-(CH2)4)]KKKK-NH2)	Toxic	Toxic	50 (≈ 13.9 µM)	50 (≈ 13.9 µM)	–	Non-toxic	50 (≈ 13.9 µM)	12.5 (≈ 3.47 µM)	50 (≈ 13.9 µM)	50 (≈ 13.9 µM)	25 (≈ 6.95 µM)	12.5 (≈ 3.47 µM)	50 (≈ 13.9 µM)	50 (≈ 13.9 µM)	25 (≈ 6.95 µM)	6.25 (≈ 1.74 µM)	Non-toxic
